Like-named read-outs stand apart in the source and are kept apart here.
Tests used:
[1] = tested on: corneal neovascularization; assay: AVASTIN in the scleral lens drug delivery system to treat corneal neovascularization; format: in vivo
From the text: This study using AVASTIN® off-label, topically, to treat corneal neovascularization was repeated using the scleral lens drug delivery system. […] This therapeutic effect was achieved without BAK. Instead, the expanded pre-corneal tear film of the scleral lens drug delivery system provided adequate bioavailability of the drug without exposing the cornea to BAK.

[2] = tested on: corneal neovascularization; settings: solution of 1% AVASTIN and 0.01% BAK, one drop, four times per day for at least thirty days, topical; cited from earlier work

For bevacizumab [AVASTIN®], the “therapeutic effect on corneal neovascularization” value ([1]; one drop of 1% AVASTIN added to expanded pre-corneal tear film of artificial tears in a scleral lens twice per day, without BAK) is listed as “achieved a therapeutic effect by thirty days with continued benefit over the subsequent sixty days”, the “regression of corneal neovascularization (clinical photos, FIG. 5)” value ([1]; scleral lens drug delivery system) is listed as “regression of corneal neovascularization” and the “therapeutic effect on corneal neovascularization” value [2] is listed as “Therapeutic effect was reported”.

Source: US20080287915A1, “Tissue engineering system with scleral lens” (Boston Foundation for Sight, priority 2007, published 2008)
